This data set is described as follows: Pharmacokinetics of solid solution capsule in patients with ANCA associated vasculitis. The data set is classed as in vivo, Humans. As to conditions: for Days 57-85 Cmin, Mean / AUC(0-t) / Cmax / Tmax: 30 mg twice daily oral, 50:50 solid solution capsules; for AUC(0-t) / Cmax / Tmax: human, in vivo, po; for AUC(0-t): read-out: Day 1 AUC0-6hr, Mean; for Cmax: read-out: Day 1 Cmax, Mean; for Tmax: read-out: Day 1 Tmax, Mean. As for the experimental part:
Solid Solution capsules of Compound 1 comprising 50:50 macrogol-40-glycerol hydroxystearate:PEG-4000 were prepared using the general procedures described in Example 4.
Patients with AAV were randomized and double-blind in placebo-controlled clinical trial conducted in a step-wise manner to evaluate the efficacy and safety of Compound 1 formulated in a solid solution as described above with reduced or no prednisone in comparison with the standard of care full dose prednisone. All patients received either cyclophosphamide (CYC) or rituximab (RTX) intravenously. 22 subjects received 30 mg of Compound 1 as described above b.i.d. for 84 days and no prednisone (prednisone-matching placebo), 22 subjects received 30 mg Compound 1 as described above b.i.d. for 84 days plus a reduced starting dose (i.e., 20 mg/day) of prednisone, and 23 subjects received Compound 1 as described above—matching placebo b.i.d. for 84 days plus a full starting dose of prednisone (i.e., 60 mg/day). All subjects received IV cyclophosphamide or rituximab.

Where [1] appears, read: AAV patients, Compound 1 + Low Dose Prednisone.
[2] abbreviates: 30 mg, AAV patients, Compound 1 + No Prednisone.
[3] abbreviates: 30 mg, AAV patients, Compound 1 with or without Prednisone.

SMILES strings stand for the structures. Read-outs that look alike come from different tables or passages of the source.

Experimental findings from patent US11951214B2, “Capsule formulations” (CHEMOCENTRYX, INC., priority 2018, dated 2024) are described below.

Regarding `Cc1ccc(NC(=O)[C@H]2CCCN(C(=O)c3c(C)cccc3F)[C@H]2c2ccc(NC3CCCC3)cc2)cc1C(F)(F)F` [Compound 1, (2R,3 S)-2-(4-(cyclopentylamino)phenyl)-1-(2-fluoro-6-methylbenzoyl)-N-(4-methyl-3-(trifluoromethyl)phenyl)piperidine-3-carboxamide], the “Days 57-85 Cmin, Mean” value is, setting by setting: under setting [1], 219 ng/mL; (AAV patients, Compound 1 + No Prednisone) 177 ng/mL; (AAV patients, Compound 1 with or without Prednisone) 204 ng/mL. For the same molecule, the absorption entry (following the first dose of 30 mg on Day 1, AAV patients) is on record as “absorbed rapidly”. Besides, the AUC(0-t) by setting is: under setting [2], 526 ng·h/mL; under setting [3], 580 ± 219 ng·h/mL; under setting [1], 643 ng·h/mL. In addition, the Cmax came out at 166 ± 55.2 ng/mL under setting [2], 188 ± 69 ng/mL under setting [3] and 214 ng/mL under setting [1]. Further, the Tmax is 2.85 h under setting [2], 2.62 h under setting [3] and 2.35 h under setting [1]. Also, for the setting “with concomitant medications prednisone, cyclophosphamide, and rituximab, AAV patients”, the drug-drug interaction entry was “No significant drug-drug interaction”.
